# Like-named read-outs stand apart in the source and are kept apart here.
# Tests used:
# [1] = system: experimental asthma in rats; test: Inhibition of experimental asthma in rats; type: in vivo, Wistar rats; conditions: Rattus norvegicus, po; for inhibition in vivo at 1 mg/kg: other dosage/kg: 1 mg; for inhibition in vivo at 0.1 mg/kg: other dosage/kg: 0.1 mg; for inhibition in vivo at 0.3 mg/kg: other dosage/kg: 0.3 mg
# Protocol: (§1) Antiserum was prepared according to the method described in J. Immunol., 106, 1002 (1971). The titer (or highest effective dilution which gave a mean 48 hours PCA response of 5 mm in diameter in a rat) of the antiserum used was 1:200.
# Wistar rats were passively sensitized by injection into caudal vein of 2.0ml/animal antiserum. After 24 hours, anaphylactic airway contraction caused by administration of antigen was measured by a modified Konzett and Roessler method. Briefly, the animal was fixed at dorsal position under urethane (1.5 g/kg, i.p.) anesthetization and connected with a respirator (Harvard Model 683, respiratory volume: 3-5 ml/respiration; respiratory rate: 72/minute) via an incised tracheal cannula. […] Oxatomide was administered two hours before the test, which is the optimal conditions according to Nippon Yakurigaku Zasshi (Japanese Journal of Pharmacology), 80, 261 (1982), and the other test drugs were orally administered at a rate of 0.2 ml/100 g body weight one hour before the test using a gastric tube. At the end of measurement, the trachea was blocked with a Kocher clamp and the measured values were expressed in percent taking the value at blockage as the maximum contraction (100%).
# [2] = system: passive cutaneous anaphylaxis (PCA) reaction in rats; test: Inhibition of PCA reaction in rats; type: in vivo, Wistar rats; conditions: Rattus norvegicus, po; for inhibition in vivo at 3 mg/kg / inhibition in vivo at 10 mg/kg: read-out: Inhibition of PCA in rat
# Protocol: as §1
# Wistar rats were passively sensitized by intracutaneous injection of 0.05 ml antiserum diluted 75 times with physiological saline at two sheared sites of dorsal skin. After 48 hours, 0.5ml/animal of 1% Evans blue-physiological saline containing 2mg ovalbumin was administered into caudal vein to elicit the reaction. After 30 minutes, rats were sacrificed by decapitative bleeding and the dorsal skin was flayed. Dye stuff exuded at the reaction site was extracted according to the method described in Microbiol. Immunol., 22, 89 (1978). Briefly, two circular pieces of sensitized areas and one circular piece of unsensitized area (as the control) were punched at 1.8 cm diameter. The disks were placed in test tubes and treated overnight with 1 ml 1N-KOH at 37° C. Then 9ml 0.6N-H3 PO4 /acetone (5/13) was added and the mixture was thoroughly stirred and centrifuged (3000 rpm, 10 minutes). The supernatant was assayed for absorption at 620 nm. The amount of dye stuff was calculated from the standard curve previously prepared with known amounts of Evance blue. The conditions of sensitization and the amount of antigen were based on Nippon Yakurigaku Zasshi (Japanese Journal of Pharmacology),80, 261 (1982).
# Test drugs and Oxatomide as a positive control were administered orally before 1 hour of elicitation through a gastric tube at 1 ml/200g body weight. In the test, groups of 6 to 7 animals and groups of 8 to 9 animals were used for test drugs and control, respectively.
# [3] = read-out: Inhibition of Experimental Asthma in rat
# [4] = 10 mg/kg, read-out: Inhibition of Experimental Asthma in rat
SMILES,"inhibition in vivo at 10 mg/kg [1, 4] [%]",inhibition in vivo at 10 mg/kg ([2]; 10 mg/kg) [%],further results
"O=c1cc(CN2CCC(c3c[nH]c4ccccc34)CC2)c2ccccc2[nH]1 [III-1, 4-[[4-(1H-indol-3-yl)-l-piperidinyl]methyl]-2(1H)-quinolinone]",–,–,"inhibition in vivo at 10 mg/kg [1, 3]: 14.6%; inhibition in vivo at 30 mg/kg [1, 3]: 14.3%; inhibition in vivo at 3 mg/kg [2]: 58.8%; inhibition in vivo at 10 mg/kg [2]: 73.1%"
"O=c1cc(CCCN2CCC(c3c[nH]c4ccccc34)CC2)c2ccccc2[nH]1 [III-3, 4-[3-[4-(1H-indol-3-yl)-1-piperidinyl]propyl]-2(1H)-quinolinone]",85,69.1,inhibition in vivo at 1 mg/kg [1]: 25.4%; inhibition in vivo at 3 mg/kg ([1]; other dosage/kg: 3 mg): 88.7%; inhibition in vivo at 1 mg/kg ([2]; other dosage/kg: 1 mg): 21.3%; inhibition in vivo at 3 mg/kg ([2]; other dosage/kg: 3 mg): 25.8%; inhibition in vivo at 30 mg/kg ([2]; other dosage/kg: 30 mg): 96.1%
"O=c1cc(CCCCN2CCC(c3c[nH]c4ccccc34)CC2)c2ccccc2[nH]1 [III-4, 4-[4-[4-(1H-indol-3-yl)-1-piperidinyl]butyl]-2(1H)-quinolinone]",28.7,12.8,–
"O=c1cc(CCCCCN2CCC(c3c[nH]c4ccccc34)CC2)c2ccccc2[nH]1 [III-5, 4-[5-[4-(1H-indol-3-yl)-1-piperidinyl]pentyl]-2(1H)-quinolinone]",8.87,66.5,–
"O=c1cc(CN2CCN(C(c3ccccc3)c3ccccc3)CC2)c2ccccc2[nH]1 [III-6, 4-[[4-(diphenylmethyl)-1-piperazinyl]methyl]-2(1H)-quinolinone]",57.2,9.7,–
"O=c1cc(CCN2CCN(C(c3ccccc3)c3ccccc3)CC2)c2ccccc2[nH]1 [III-7, 4-[2-[4-(diphenylmethyl)-1-piperazinyl]ethyl]-2(1H)-quinolinone]",63.6,57.8,–
"O=c1cc(CCCN2CCN(C(c3ccccc3)c3ccccc3)CC2)c2ccccc2[nH]1 [III-8, 4-[3-[4-(diphenylmethyl)-1-piperazinyl]propyl]-2(1H)-quinolinone]",17.1,73.9,–
O=c1cc(CCN2CCN(C(c3ccccc3)c3ccc(Cl)cc3)CC2)c2ccccc2[nH]1 (centres unmarked) [III-9],34.6,8.9,–
"O=c1cc(CCN2CCC(OC(c3ccccc3)c3ccccc3)CC2)c2ccccc2[nH]1 [III-11, 4-[2-[4-(diphenylmethoxy)-1-piperidinyl]ethyl]-2(1H)-quinolinone]",35.6,63.6,–
"O=c1cc(CCCN2CCC(OC(c3ccccc3)c3ccccc3)CC2)c2ccccc2[nH]1 [III-12, 4-[3-[4-(diphenylmethoxy)-1-piperidinyl]propyl]-2(1H)-quinolinone]",12.1,73.6,–
"O=C1Cc2ccccc2C(=C2CCN(Cc3cc(=O)[nH]c4ccccc34)CC2)c2ccsc21 [III-13, 4,9-dihydro-4-[1-[(1,2-dihydro-2-oxo-4-quinolyl)methyl]-4-piperidinylidene]-10H-benzo[4, 5]cyclohepta[1,2-b]thiophen-10-one]",42.9,24.2,–
"O=C1Cc2ccccc2C(=C2CCN(CCc3cc(=O)[nH]c4ccccc34)CC2)c2ccsc21 [III-14, 4,9-dihydro-4-[1-[2-(1,2-dihydro-2-oxo-4-quinolyl)ethyl]-4-piperidinylidene]-10H-benzo[4, 5]cyclohepta[1,2-b]thiophen-10-one]",44.8,23.1,–
"O=C1Cc2ccccc2C(=C2CCN(CCCc3cc(=O)[nH]c4ccccc34)CC2)c2ccsc21 [III-15, 4,9-dihydro-4-[1-[3-(1,2-dihydro-2-oxo-4-quinolyl)propyl]-4-piperidinylidene]-10H-benzo[4, 5]cyclohepta[1,2-b]thiophen-10-one]",37.5,49.9,–
"Cn1c(=O)cc(CN2CCC(c3c[nH]c4ccccc34)CC2)c2ccccc21 [III-16, 4-[[4-(1H-indol-3-yl)-l-piperidinyl]methyl]-1-methyl-2(1H)-quinolinone]",–,–,"inhibition in vivo at 10 mg/kg [1, 3]: 2.57%; inhibition in vivo at 10 mg/kg [2]: 45.6%"
"Cn1c(=O)cc(CCN2CCC(c3c[nH]c4ccccc34)CC2)c2ccccc21 [III-17, 4-[2-[4-(1H-indol-3-yl)-1-piperidinyl]ethyl]-1-methyl-2(1H)-quinolinone]",86.5,42.5,inhibition in vivo at 0.1 mg/kg [1]: 96.2%; inhibition in vivo at 0.3 mg/kg [1]: 80.9%; inhibition in vivo at 1 mg/kg [1]: 88.1%
"O=c1cc(CCN2CCC(c3c[nH]c4ccccc34)CC2)c2ccc(Br)cc2[nH]1 [III-18, 7-bromo-4-[2-[4-(1H-indol-3-yl)-1-piperidinyl]ethyl]-2(1H)-quinolinone]",84.2,45.2,inhibition in vivo at 1 mg/kg [1]: 62.6%
"O=c1cc(CCN2CCC(c3c[nH]c4ccccc34)CC2)c2cc([N+](=O)[O-])ccc2[nH]1 [III-19, 4-[2-[4-(1H-indol-3-yl)-1-piperidinyl]ethyl]-6-nitro-2(1H)-quinolinone]",88.5,20.3,–
"Nc1ccc2[nH]c(=O)cc(CCN3CCC(c4c[nH]c5ccccc45)CC3)c2c1 [III-20, 6-amino-4-[2-[4-(1H-indol-3-yl)-1-piperidinyl]ethyl]-2(1H)-quinolinone]",89.2,18.5,–
"Cc1ccc2[nH]c(=O)cc(CCN3CCC(c4c[nH]c5ccccc45)CC3)c2c1 [III-23, 4-[2-[4-(1H-indol-3-yl)-1-piperidinyl]ethyl]-6-methyl-2(1H)-quinolinone]",95.5,62,inhibition in vivo at 0.1 mg/kg [1]: 48.5%; inhibition in vivo at 0.3 mg/kg [1]: 84%; inhibition in vivo at 1 mg/kg [1]: 95%
"Cc1cccc2c(CCN3CCC(c4c[nH]c5ccccc45)CC3)cc(=O)[nH]c12 [III-24, 4-[2-[4-(1H-indol-3-yl)-1-piperidinyl]ethyl]-8-methyl-2-(1H)-quinolinone]",73.8,102,inhibition in vivo at 1 mg/kg [1]: 95.7%
"Cc1ccc2c(CCN3CCC(c4c[nH]c5ccccc45)CC3)cc(=O)[nH]c2c1 [III-25, 4-[2-[4-(1H-indol-3-yl)-1-piperidinyl]ethyl]-7-methyl-2-(1H)-quinolinone]",68.6,29.4,–
"Cc1cc(C)c2c(CCN3CCC(c4c[nH]c5ccccc45)CC3)cc(=O)[nH]c2c1 [III-27, 5,7-dimethyl-4-[2-[4-(1H-indol-3-yl)-1-piperidinyl]ethyl]-2(1H)-quinolinone]",65.8,70.9,–
"O=C1CC(CCN2CCC(c3c[nH]c4ccccc34)CC2)c2ccccc2N1 (centres unmarked) [IV-1, 3,4-dihydro-4-[2-[4-(1H-indol-3-yl)-1-piperidinyl]ethyl]-2(1H)-quinolinone]",80.1,95.9,inhibition in vivo at 1 mg/kg [1]: 26.4%; inhibition in vivo at 3 mg/kg ([2]; other dosage/kg: 3 mg): 65.9%
"O=c1ccc2cc(Cl)ccc2n1CCCN1CCC(c2c[nH]c3ccccc23)CC1 [VII-1, 1-[3-[4-(1H-indol-3-yl)-piperidinyl]propyl]-6-chloro-2-(1H)-quinolinone]",40.3,12.1,–
"Cc1ccc2c(ccc(=O)n2CCCN2CCC(c3c[nH]c4ccccc34)CC2)c1 [VII-2, 1-[3-[4-(1H-indol-3-yl)-1-piperidinyl]propyl]-6-methyl-2(1H)-quinolinone]",24.3,41.9,–
"O=c1ccc2ccccc2n1CCCN1CCC(c2c[nH]c3ccccc23)CC1 [VII-3, 1-[3-[4-(1H-indol-3-yl)-1-piperidinyl]propyl]-2(1H)-quinolinone]",76.7,27.2,–
"Cc1cc(=O)n(CCCN2CCC(c3c[nH]c4ccccc34)CC2)c2ccccc12 [VII-4, 1-[3-[4-(1H-indol-3-yl)-1-piperidinyl]propyl]-4-methyl-2-(1H)-quinolinone]",10.8,89.2,–

# — patent US5457099A, “Carbostyril derivatives and antiallergic agent” (Sawai Pharmaceutical Co., Ltd., priority 1992, dated 1995)
